Data from paper PMC6759624, “Unraveling Heparan Sulfate Proteoglycan Binding Motif for Cancer Cell Selectivity” (Frontiers in Oncology, 2019).
“Also recorded” adds a separate entry of the source.

How the values were obtained:
[1] = tested on: pancreas adenocarcinoma cells; details: ref [13]; cited from earlier work
Text: (§1) NT4 peptides can be conjugated with different functional units and can selectively deliver drugs for cancer therapy or transport tracers for tumor imaging ([11], [12], [15]–[18]). […] NT4 transports the chemotherapeutic moiety to the cancer cell membrane and, ultimately, into the cell ([14]–[16]). In animal models of cancer, the higher concentration of the cytotoxic drug at the site of the tumo ...

breast cancer cells = details: ref [13], [20]; cited from earlier work
Text: as §1

glypican-3 = assay: SPR, NT4 binding to recombinant glypican-3; parameters: species or system human; details: rHSPG over immobilized NT4
Procedure: Experiments were performed on a Biacore T100 instrument (GE Healthcare). All materials were purchased from GE Healthcare unless otherwise specified. Full-length recombinant human HSPG were purchased from R&D Systems. Syndecan-3, syndecan-4, and glypican-3 were obtained from the mouse myeloma cell line (NS0), and glypican-4 was obtained from the Chinese Hamster Ovary cell line. The activity of syndecan-4, glypican-3, and glypican-4 was measured by the supplier as the ability of the immobilized protein to bind FGF-basic. The activity of syndecan-3 was measured by the supplier as the ability of the immobilized protein to inhibit adhesion of Saos-2 human osteosarcoma cells to human fibronectin.
NT4-biotin was captured on a CM5 sensor chip where streptavidin had previously been immobilized by standard amine coupling. Briefly, the sensor chip surface was activated with a mixture of 0.1 M 1-ethyl-3(3-dimethylaminopropyl)-carbodiimide (EDC) and 0.4 M N-hydroxyl succinimide (NHS) for 7 min at a flow rate of 5 μl/min. Streptavidin was injected over the surface for 7 min, and finally, 1 M ethanolamine pH 8.5 was used to block any activated carboxyl groups. […]
Kinetics were analyzed with the Biacore T100 evaluation 1.1.1 software using the 1:1 Langmuir model to fit the curves.

binding to glypican-3 (glypican-3): bound; also recorded: binds
Substance: (pyELYENKPRRPYIL)4K2K-beta-Ala [NT4]
effect on oriented migration [1]: inhibited
effect on growth factor-induced migration and invasiveness (breast cancer cells): inhibited
